For data set [1], the system named is B-CLL. The experiment in a line: Cytotoxicity against human B-CLL cells assessed as reduction in cell viability. The class given is functional, cell-based.
For data set [2], the system named is PBMC. Description: Cytotoxicity against human PBMC. It counts as cell-based.
Data set [3] deals with B-CLL. The experiment in a line: Cytotoxicity against human B-CLL cells assessed as reduction in cell viability at 10 uM. The class given is functional, cell-based.
Data set [4] relates to K562. Description: Cytotoxicity against human K562 cells assessed as cell viability at 10 uM. The class given is functional. Particulars: read-out: Activity.
Data set [5] can be described thus: Cytotoxicity against human B-CLL cells assessed as reduction in cell viability at 500 nM relative to untreated control. The class given is functional.
Data set [6] can be described thus: Cytotoxicity against human B-CLL cells assessed as reduction in cell viability at 1 uM relative to untreated control. The class given is functional.
Data set [7] relates to B-CLL. Description: Induction of intracellular ROS level in human B-CLL cells by flow cytometry. The class given is functional, cell-based. On the technique in general: A flow cytometer gives signals particle by particle.
In data set [8] the test system is PBMC. The experiment in a line: Induction of intracellular ROS level in human PBMC cells by flow cytometry. It counts as functional, cell-based.
Data set [9] can be described thus: Cytotoxicity against mouse NIH/3T3 cells at 1.25 uM. The class given is cell-based. Particulars: nih3t3, 1.25 µM.
Data set [10] deals with HUVEC. The experiment in a line: Cytotoxicity against HUVEC at 1.25 uM. The class given is cell-based. Particulars: human.
For data set [11], the system named is A549. The experiment in a line: Cytotoxicity against human A549 cells at 0.3 uM. It counts as functional.
The test system of data set [12] is MCF7. Description: Cytotoxicity against human MCF7 cells at 0.3 uM. It counts as functional.
The subject of data set [13] is B-CLL. Description: Induction of apoptosis in human B-CLL cells assessed as caspase3 activation by […]. The class given is functional, cell-based.
Data set [14] concerns PBMC. Description: Induction of apoptosis in human PBMC cells assessed as caspase3 activation by […]. It counts as functional, cell-based.
In data set [15] the test system is HT-29. The experiment in a line: Cytotoxicity against human HT-29 cells at 0.3 to 0.625 uM. It counts as functional.
Data set [16] has as its system MCF7. Description: Cytotoxicity against human MCF7 cells at 0.3 to 0.625 uM. The class given is functional.
In data set [17] the test system is A549. The experiment in a line: Cytotoxicity against human A549 cells at 0.3 to 0.625 uM. It counts as functional.

Active and inactive are the calls of the source. No cut-off for these calls is given here. Bounds are passed on as bounds.

For the compound `O=C1C([Se]c2ccccc2)=C([Se]c2ccccc2)C(=O)c2c(O)ccc(O)c21`, the outcome in [1] and in data set [3] was Active. In addition, the Activity entry in data set [2] is on record as “Toxic”.
In the case of `CCOC(C[Se]C1=C([Se]CC(OCC)OCC)C(=O)c2ccccc2C1=O)OCC`, the viability at 10 µM in data set [4] came out at 8.6%.
Consider `CC1=C([Te]c2ccccc2)C(=O)c2ccccc2C1=O`, for which the result in data set [1] and in data set [7] was Active. Also, the viability at 10 µM in data set [4] was found to be 4.1%. In addition, the Activity result was “Non-toxic” in data set [2]; below 50% in data set [9]; below 50% in [10]; below 50% in data set [11]; below 50% in [12]. The Ratio in [5] was 3.17; in [6] it was 5.03. In addition, in [8], the outcome was inactive.
For the compound `O=C1C([Te]c2ccccc2)=C([Te]c2ccccc2)C(=O)c2ccccc21`, the result in data set [1], in [13] and in data set [7] was Active. The viability at 10 µM in data set [4] came out at 15%. Moreover, the Activity result is listed as “Non-toxic” in data set [2]; below 50% in data set [15]; below 50% in data set [16]; below 50% in [17]; below 50% in data set [9]; below 50% in data set [10]. For the same compound, the result in data set [14] and in data set [8] was inactive.
For `O=C1C([Se]c2ccccc2)=C([Se]c2ccccc2)C(=O)c2ccccc21`, in data set [1], the result was Active. Besides, in data set [2], the Activity entry was “Non-toxic”.
In the case of `CC1=C([Te]c2ccc(O)cc2)C(=O)c2ccccc2C1=O`, the outcome in data set [1] was inactive. The viability at 10 µM in data set [4] was determined as 30%.
For `O=C1C(Sc2ccccc2)=C(Sc2ccccc2)C(=O)c2ccccc21`, the outcome in data set [1] and in data set [3] was Active.

(Values after ChEMBL document CHEMBL1255215, “Synthesis and selective anticancer activity of organochalcogen based redox catalysts” (J Med Chem, 2010).)
